Each molecule was assayed against T1, human GPR119 receptor (Homo sapiens, UniProt Q8TDV5, S329A/T327A) (assay: cAMP assay (LANCE cAMP-384) in HEK293 cells stably expressing mutant human GPR119 receptor). Conditions: HEK293, 20 min; single concentration 10 μM; given where no EC50 value could be determined; read-out: % stimulation at 10 μM.
T1 construct: N-terminal leader […]; expressed in transfected cells
T1 sequence (Q8TDV5 with tags, fused parts or gaps T327A/S329A): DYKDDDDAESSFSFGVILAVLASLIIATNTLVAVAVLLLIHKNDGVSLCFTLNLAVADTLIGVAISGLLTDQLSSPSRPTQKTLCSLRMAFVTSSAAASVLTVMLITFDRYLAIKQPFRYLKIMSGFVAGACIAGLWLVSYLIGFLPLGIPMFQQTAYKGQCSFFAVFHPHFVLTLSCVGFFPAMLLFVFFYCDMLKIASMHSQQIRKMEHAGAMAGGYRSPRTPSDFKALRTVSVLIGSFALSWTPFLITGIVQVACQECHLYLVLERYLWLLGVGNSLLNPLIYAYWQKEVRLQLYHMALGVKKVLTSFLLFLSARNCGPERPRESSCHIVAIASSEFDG
Format: cell-based
Protocol: Quantitative detection of cAMP accumulation from cells expressing human GPR119 receptor was achieved using Perkin Elmer's LANCE cAMP-384 Kit (Cat#AD0264) according to the manufacturer's protocol. Briefly, HEK293 cells stably expressing a mutant form of the human GPR119 receptor (Methionine 1 replaced with the amino acid sequence […] (SEQ ID NO: 1), and T327 & S329 changed to alanines) were grown to 50-70% confluency in cell culture media (DMEM, 10% heat inactivated Fetal Bovine Serum, 50 I.U./mL penicillin, 50 μg/mL streptomycin, 10 mM HEPES, 20 μg/mL G418 Sulfate). On the day of the assay, GPR119 stable HEK293 cells were lifted from the tissue culture plate and 1000 cells/well were incubated along with various concentrations of test compounds for 20 min at 37° C. Detection Buffer (50mM HEPES, 10mM calcium chloride, 0.35% Triton X-100, 1 mg/mL BSA) containing cAMP-specific antibody was then added to all wells and allowed to equilibrate in the dark for 10 minutes at room temperature. Upon equilibration, Detection Buffer containing europium-labeled cAMP tracer complex was added to all wells and allowed to react for 1 hour at room temperature. After 1 hour, bound europium-labeled cAMP tracer was measured using a Perkin Elmer ViewLux. The quantity of cAMP generated in each well was derived from a standard curve. EC50 was determined using nonlinear regression analysis of the cAMP values over a range of agonist concentration (12 points spanning the range from 30 μM to 100pM).
For some compounds for which no EC50 value could be determined, the efficacy is provided at a single concentration (10 μM) yielding % stimulation values.
With `CC(C)OC(=O)N1CCC(ON=C2CCN(c3cc(Br)ccn3)CC2)CC1` [Example 2-67] the activation at 10 µM was 54%.
Work on `CC(C)OC(=O)N1CCC(ON=C2CCN(c3ncc(Cl)cc3F)CC2)CC1` [Example 2-68] yielded an activation at 10 µM of 63%.
Molecule `CC(C)OC(=O)N1CCC(ON=C2CCN(c3cc(F)c(CN4CCOCC4)cc3F)CC2)CC1` [Example 5-4] has an activation at 10 µM of 69%.
With `CNCc1cc(F)c(N2CCC(=NOC3CCN(C(=O)OC(C)C)CC3)CC2)cc1F` [Example 5-6] the activation at 10 µM was 78%.

Same assay, conditions: cAMP accumulation, HEK293 cells stably expressing mutant human GPR119; read-out: EC50
With `CC(C)OC(=O)N1CCC(ON=C2CCN(c3ncc(F)cc3F)CC2)CC1` [Example 2-69] the EC50 was 1020 nM.
In the case of `CC(C)OC(=O)N1CCC(ON=C2CCN(c3nc(F)ccc3F)CC2)CC1` [Example 2-70], the EC50 is reported as 3260 nM.
`CC(C)OC(=O)N1CCC(ON=C2CCN(c3ccc(F)c(F)n3)CC2)CC1` [Example 2-71] was tested, and the EC50 was 2590 nM.
`CC(C)OC(=O)N1CCC(ON=C2CCN(c3ccncc3F)CC2)CC1` [Example 2-72] was tested, and the EC50 was 750 nM.
With `CC(C)OC(=O)N1CCC(ON=C2CCN(c3nc(Cl)ncc3F)CC2)CC1` [Example 2-73] the EC50 was 110 nM.
In the case of `CC(C)OC(=O)N1CCC(ON=C2CCN(c3cc(O)ncc3F)CC2)CC1` [Example 2-74], the EC50 is reported as > 10000 nM.
Molecule `CC(C)OC(=O)N1CCC(ON=C2CCN(c3nc(F)c(F)cc3F)CC2)CC1` [Example 2-75] has an EC50 of 453 nM.
With `Cc1cc(N2CCC(=NOC3CCN(C(=O)OC(C)C)CC3)CC2)c(F)cc1C(N)=O` [Example 2-76] the EC50 was 534 nM.
`CC(CO)CNC(=O)c1cc(F)c(N2CCC(=NOC3CCN(C(=O)OC(C)C)CC3)CC2)cc1F` (centres unmarked) [Example 2-77] gave an EC50 of 47 nM.
`Cc1ncccc1N1CCC(=NOC2CCN(C(=O)OC(C)C)CC2)CC1` [Example 4-1, Isopropyl 4-(2′-Methyl-2,3,5,6-tetrahydro-[1,3′]bipyridinyl-4-ylideneaminooxy)piperidine-1-carboxylate] was tested, and the EC50 was 4800 nM.
`CC(C)OC(=O)N1CCC(ON=C2CCN(c3cc(F)c(CN4CCCC4)cc3F)CC2)CC1` [Example 5-1, 4-[1-(2,5-Difluoro-4-pyrrolidin-1-ylmethyl-phenyl)-piperidin-4-ylideneaminooxy]-piperidine-1-carboxylic acid isopropyl ester] was tested, and the EC50 was 7830 nM.
In the case of `CC(C)OC(=O)N1CCC(ON=C2CCN(c3cc(F)c(CN4CCOC(CC(=O)O)C4)cc3F)CC2)CC1` (centres unmarked) [Example 5-2], the EC50 is reported as 5880 nM.
For `CC(C)OC(=O)N1CCC(ON=C2CCN(c3cc(F)c(CN(C)CCO)cc3F)CC2)CC1` [Example 5-3], the EC50 was > 10000 nM.
With `COCCN(C)Cc1cc(F)c(N2CCC(=NOC3CCN(C(=O)OC(C)C)CC3)CC2)cc1F` [Example 5-5] the EC50 was > 10000 nM.
Molecule `COC(=O)CCNCc1cc(F)c(N2CCC(=NOC3CCN(C(=O)OC(C)C)CC3)CC2)cc1F` [Example 5-7] has an EC50 of 1150 nM.
With `CC(C)OC(=O)N1CCC(ON=C2CCN(c3cc(F)c(CN(C)C)cc3F)CC2)CC1` [Example 5-8] the EC50 was > 10000 nM.
`CC(C)OC(=O)N1CCC(ON=C2CCN(c3cc(F)c(CNCCF)cc3F)CC2)CC1` [Example 5-9] was tested, and the EC50 was 703 nM.
For `CC(C)OC(=O)N1CCC(ON=C2CCN(c3cc(F)c(CN(C)CCCC(=O)O)cc3F)CC2)CC1` [Example 5-10], the EC50 was > 10000 nM.
With `CC(C)OC(=O)N1CCC(ON=C2CCN(c3cc(F)c(CNCc4nccs4)cc3F)CC2)CC1` [Example 5-11] the EC50 was 332 nM.
`CC(C)OC(=O)N1CCC(ON=C2CCN(c3cc(F)c(CN4CCCC4=O)cc3F)CC2)CC1` [Example 6-1, 4-{1-[2,5-Difluoro-4-(2-oxo-pyrrolidin-1-ylmethyl)-phenyl]-piperidin-4-ylideneaminooxy}-piperidine-1-carboxylic acid isopropyl ester] was tested, and the EC50 was 40 nM.
`CC(C)OC(=O)N1CCC(ON=C2CCN(c3cc(F)c(CNCCC(=O)O)cc3F)CC2)CC1` [Example 7-1, 4-(1-{4-[(2-Carboxy-ethylamino)-methyl]-2,5-difluoro-phenyl}-piperidin-4-ylideneaminooxy)-piperidine-1-carboxylic acid isopropyl ester] showed an EC50 of 1150 nM.
Molecule `CC(C)OC(=O)N1CCC(ON=C2CCN(c3cc(F)c(CO)cc3F)CC2)CC1` [Example 10-1, 4-[1-(2,5-Difluoro-4-hydroxymethyl-phenyl)-piperidin-4-ylideneaminooxy]-piperidine-1-carboxylic acid isopropyl ester] has an EC50 of 9 nM.
With `CC(=O)OCc1cc(F)c(N2CCC(=NOC3CCN(C(=O)OC(C)C)CC3)CC2)cc1F` [Example 11-1, 4-[1-(4-acetoxymethyl-2,5-difluoro-phenyl)-piperidin-4-ylideneaminooxy]-piperidine-1-carboxylic acid isopropyl ester] the EC50 was 67 nM.
Molecule `CC(C)OC(=O)N1CCC(ON=C2CCN(c3cc(F)c(CS(C)(=O)=O)cc3F)CC2)CC1` [Example 13-1, 4-[1-(2,5-Difluoro-4-methanesulfonylmethyl-phenyl)-piperidin-4-ylideneaminooxy]-piperidine-1-carboxylic acid isopropyl ester] has an EC50 of 30 nM.
`CC(C)OC(=O)N1CCC(ON=C2CCN(c3cc(F)c(CSCC(=O)O)cc3F)CC2)CC1` [Example 13-2] gave an EC50 of 2410 nM.
`CC(C)OC(=O)N1CCC(ON=C2CCN(c3cc(F)c(Cn4cccn4)cc3F)CC2)CC1` [Example 14-1, 4-{1[2,5-Difluoro-4-(pyrazol-1-ylmethyl)-phenyl]-piperidin-4-ylideneaminooxy}-piperidine-1-carboxylic acid isopropyl ester] was tested, and the EC50 was 38 nM.
In the case of `CC(C)OC(=O)N1CCC(ON=C2CCN(c3cc(F)c(CS(=O)(=O)C4CC4)cc3F)CC2)CC1` [Example 14-3], the EC50 is reported as 19 nM.
For `CC(C)OC(=O)N1CCC(ON=C2CCN(c3cc(F)c(Cn4ccnc4)cc3F)CC2)CC1` [Example 14-4], the EC50 was 268 nM.
`CC(C)OC(=O)N1CCC(ON=C2CCN(c3cc(F)c(Cn4cnc5ncccc54)cc3F)CC2)CC1` [Example 14-5] showed an EC50 of 374 nM.
`CC(C)OC(=O)N1CCC(ON=C2CCN(c3cc(F)c(Cn4cnc5cccnc54)cc3F)CC2)CC1` [Example 14-6] showed an EC50 of 647 nM.
`CC(C)OC(=O)N1CCC(ON=C2CCN(c3cc(F)c(Cn4cccc5ncnc4-5)cc3F)CC2)CC1` [Example 14-7] was tested, and the EC50 was 713 nM.
For `CC(C)OC(=O)N1CCC(ON=C2CCN(c3cc(F)c(Cn4cnc5ccncc54)cc3F)CC2)CC1` [Example 14-8], the EC50 was 763 nM.
`Cc1ccn(Cc2cc(F)c(N3CCC(=NOC4CCN(C(=O)OC(C)C)CC4)CC3)cc2F)n1` [Example 14-9] was tested, and the EC50 was 257 nM.
Work on `Cc1cnn(Cc2cc(F)c(N3CCC(=NOC4CCN(C(=O)OC(C)C)CC4)CC3)cc2F)c1` [Example 14-10] yielded an EC50 of 8 nM.
`CCOC(=O)c1cnn(Cc2cc(F)c(N3CCC(=NOC4CCN(C(=O)OC(C)C)CC4)CC3)cc2F)c1` [Example 14-11] was tested, and the EC50 was 190 nM.
`CC(C)OC(=O)N1CCC(ON=C2CCN(c3cc(F)c(Cn4ccnn4)cc3F)CC2)CC1` [Example 14-12] showed an EC50 of 32 nM.
In the case of `CC(C)OC(=O)N1CCC(ON=C2CCN(c3cc(F)c(Cn4nccn4)cc3F)CC2)CC1` [Example 14-13], the EC50 is reported as 16 nM.
`CC(C)OC(=O)N1CCC(ON=C2CCN(c3cc(F)c(Cn4cccc4)cc3F)CC2)CC1` [Example 14-14] showed an EC50 of 467 nM.
Molecule `Cc1nnnn1Cc1cc(F)c(N2CCC(=NOC3CCN(C(=O)OC(C)C)CC3)CC2)cc1F` [Example 14-15] has an EC50 of 39 nM.
With `Cc1nnn(Cc2cc(F)c(N3CCC(=NOC4CCN(C(=O)OC(C)C)CC4)CC3)cc2F)n1` [Example 14-16] the EC50 was 256 nM.
Work on `CC(C)OC(=O)N1CCC(ON=C2CCN(c3cc(F)c(Cn4cnnc4)cc3F)CC2)CC1` [Example 14-17] yielded an EC50 of 28 nM.
In the case of `CC(C)OC(=O)N1CCC(ON=C2CCN(c3cc(F)c(Cn4cncn4)cc3F)CC2)CC1` [Example 14-18], the EC50 is reported as 1350 nM.
`CC(C)OC(=O)N1CCC(ON=C2CCN(c3cc(F)c(CN4CCOC4=O)cc3F)CC2)CC1` [Example 15-1, 4-{1-[2,5-DIFLUORO-4-(2-OXO-OXAZOLIDIN-3-YLMETHYL)-PHENYL]-PIPERIDIN-4-YLIDENEAMINOOXY}-PIPERIDINE-1-CARBOXYLIC ACID ISOPROPYL ESTER] was tested, and the EC50 was 140 nM.
Work on `CC(C)OC(=O)N1CCC(ON=C2CCN(c3cc(F)c(CN4CCN(C)C4=O)cc3F)CC2)CC1` [Example 15-2] yielded an EC50 of 282 nM.
For `CC(C)OC(=O)N1CCC(ON=C2CCN(c3cc(F)c(CN4CCN(C(=O)OC(C)(C)C)CC4=O)cc3F)CC2)CC1` [Example 15-3], the EC50 was 408 nM.
In the case of `CCNC(=O)NCc1cc(F)c(N2CCC(=NOC3CCN(C(=O)OC(C)C)CC3)CC2)cc1F` [Example 16-1, 4-(1-{4-[(3-Ethyl-ureido)-methyl]-2,5-difluoro-phenyl}-piperidin-4-ylideneaminooxy)-piperidine-1-carboxylic acid isopropyl ester], the EC50 is reported as 168 nM.

Reference: patent US8293729B2 (Boehringer Ingelheim International GmbH, priority 2009, dated 2012)
